Molecules are shown by their SMILES.

The target in the test is T1, human MPO (Homo sapiens, UniProt P05164).
T1 sequence (P05164 49-745): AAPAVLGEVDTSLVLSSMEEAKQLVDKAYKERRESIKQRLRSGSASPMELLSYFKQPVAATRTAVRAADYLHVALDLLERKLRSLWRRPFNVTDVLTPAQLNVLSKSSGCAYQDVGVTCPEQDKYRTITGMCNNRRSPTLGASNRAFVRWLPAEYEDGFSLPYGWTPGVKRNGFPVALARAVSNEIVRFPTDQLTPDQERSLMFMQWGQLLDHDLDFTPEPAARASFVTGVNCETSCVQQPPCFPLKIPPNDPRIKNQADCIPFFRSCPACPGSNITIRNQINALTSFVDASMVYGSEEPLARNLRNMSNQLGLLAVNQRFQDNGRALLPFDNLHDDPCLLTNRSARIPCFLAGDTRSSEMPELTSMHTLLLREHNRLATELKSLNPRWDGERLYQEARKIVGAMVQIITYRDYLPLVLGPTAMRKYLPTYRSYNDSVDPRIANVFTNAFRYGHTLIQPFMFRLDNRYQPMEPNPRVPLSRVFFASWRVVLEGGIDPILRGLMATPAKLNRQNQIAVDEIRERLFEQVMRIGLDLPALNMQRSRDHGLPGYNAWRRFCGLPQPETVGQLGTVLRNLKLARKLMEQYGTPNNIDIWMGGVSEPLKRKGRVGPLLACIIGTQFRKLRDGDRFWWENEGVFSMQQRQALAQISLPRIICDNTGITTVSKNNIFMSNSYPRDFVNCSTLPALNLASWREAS
The test can be described thus: MPO inhibitory activity screen (TMB oxidation, absorbance). It is filed as biochemical. Particulars: human MPO 2.5 nM, H2O2 100 μM, buffer pH 6.5, absorbance at about 650 nM. On the procedure:
Methods for the determination of MPO inhibitory activity are disclosed in co-pending patent application WO 02/090575. The pharmacological activity of compounds according to the invention was tested in the following screen:
Assay buffer: 20 mM sodium/potassium phosphate buffer pH 6.5 containing 10 mM taurine and 100 mM NaCl.
Developing reagent: 2 mM 3,3′,5,5′-tetramethylbenzidine (TMB), 200 μM KI, 200 mM acetate buffer pH 5.4 with 20% DMF.
To 10 μl of diluted compounds in assay buffer, 40 μl of human MPO (final concentration 2.5 nM) was added for 10 minutes at room temperature. Then 50 μl of H2O2 (final concentration 100 μM), or assay buffer alone as a control, were added for 10 minutes at room temperature. The reaction was stopped by adding 10 μl 0.2 mg/ml of catalase (final concentration 18 μg/ml) for 5 minutes before 100 μl of TMB developing reagent was added (2 mM TMB in 200 mM acetate buffer pH 5.4 containing 20% dimethylformamide (DMF) and 200 μM KI). Plates were mixed and the amount of oxidised 3,3′,5,5′-tetramethylbenzidine formed was then measured after about 5 minutes using absorbance spectroscopy at about […]. IC50 values were then determined using standard procedures.

The compound `CC(C)Cn1c(=S)[nH]c(=O)c2[nH]c(C(F)(F)F)nc21` [Example 1, 3-Isobutyl-2-thioxo-8-trifluoromethyl-1,2,3,7-tetrahydro-purin-6-one] came in with an IC50 of less than 60 µM.

The values above are taken from patent publication US20070032468A1, “Novel thioxanthine derivatives for use as inhibitors of mpo” (AstraZeneca AB, priority 2003, published 2007).
